Measurements: article PMC10224441, “Structural Manipulations of Marine Natural Products Inspire a New Library of 3-Amino-1,2,4-Triazine PDK Inhibitors Endowed with Antitumor Activity in Pancreatic Ductal Adenocarcinoma” (Marine Drugs, 2023)

How the values were obtained:
recombinant human PDK1 = target: T1, recombinant human PDK1 (Homo sapiens, UniProt Q15118); experiment: PDK1 ADPGlo Kinase Assay; assay type: biochemical; conditions: for inhibition of PDK1 enzymatic activity: 1.5 µM compound, 30 min, room temperature; for IC50: isolated PDK1 isoform, four-parameter logistic model, mean of 3 independent experiments, read-out: IC50 (µM) ± S.D. PDK1
T1 construct: purchased Abcam
T1 sequence (Q15118 29-436): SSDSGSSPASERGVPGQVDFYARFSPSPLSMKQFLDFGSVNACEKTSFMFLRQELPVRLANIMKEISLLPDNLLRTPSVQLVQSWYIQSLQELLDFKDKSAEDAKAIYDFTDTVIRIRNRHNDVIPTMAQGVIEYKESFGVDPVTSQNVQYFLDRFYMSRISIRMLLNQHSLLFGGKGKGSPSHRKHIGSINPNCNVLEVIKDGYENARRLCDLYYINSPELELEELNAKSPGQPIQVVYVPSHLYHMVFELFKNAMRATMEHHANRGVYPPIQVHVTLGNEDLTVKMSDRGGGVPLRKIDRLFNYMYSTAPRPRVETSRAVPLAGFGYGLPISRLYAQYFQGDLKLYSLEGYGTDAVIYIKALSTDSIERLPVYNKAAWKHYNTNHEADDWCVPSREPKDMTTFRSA
Experimental: The ability of the tested compounds to hamper the activity of PDK1-4 isoforms was firstly evaluated by means of a chemioluminescent assay, the ADPGlo™ Kinase Assay kit (Promega Corporation, Madison, WI, USA).
(§1) The in vitro inhibitory activity of tested compounds on recombinant human PDK1-4 isoforms (Abcam, Cambridge, MA, USA) was evaluated by using the ADPGlo™ Kinase Assay kit from Promega (Promega Corporation, Madison, WI, USA) following the instructions of the manufacturer, as previously described.

[1] = system: BxPC-3 cells (KRAS-wild-type PDAC); experiment: 2D cytotoxicity, MTT assay, BxPC-3; assay type: cell-based; conditions: Homo sapiens, BXPC-3; 72 h exposure, MTT test, 2D culture; read-out: IC50 (µM) ± S.D. BxPC-3 (2D)
Experimental: (§2) All newly developed 1,2,4-amino-triazine compounds were screened for their cytotoxic activity against two human PDAC cell lines, namely, a KRAS-wild-type PDAC cell line (BxPC-3 cells) and a KRAS-mutant PDAC cell line (PSN-1 cells). […] The cytotoxicity parameters, expressed in terms of IC50 and obtained after 72 h of drug exposure by MTT assay, are reported in Table 3.
(§3) All tested compounds were dissolved in DMSO just before the experiment, and a calculated amount of drug solution was added to the cell growth medium to a final solvent concentration of 0.5%, which had no detectable effects on cell viability.
(§4) Human pancreatic PSN-1 and BxPC-3 carcinoma cell lines were obtained by American Type Culture Collection (ATCC, Rockville, MD, USA). Cell lines were maintained in the logarithmic phase at 37 °C in a 5% carbon dioxide atmosphere using RPMI-1640 medium (EuroClone) containing 10% fetal calf serum (EuroClone, Milan, Italy), antibiotics (50 units/mL penicillin and 50 μg/mL streptomycin) and 2 mM l-glutamine.
(§5) The growth inhibitory effect on tumor cells was evaluated by means of MTT assay. Briefly, 5 × 10^3 cells/well were seeded in 96-well microplates in a growth medium (100 μL). After 24 h, the medium was removed and replaced with a fresh one containing the compound to be studied at the appropriate concentration. Triplicate cultures were established for each treatment. After 72 h, each well was treated with 10 μL of a 5 mg/mL MTT saline solution, and following 5 h of incubation, 100 μL of a sodium dodecyl sulfate (SDS) solution in HCl 0.01 M was added. After overnight incubation, cell growth inhibition was detected by measuring the absorbance of each well at 570 nm using a Bio-Rad 680 microplate reader. The mean absorbance for each drug dose was expressed as a percentage of the control untreated well absorbance and plotted vs. drug concentration. IC50 values, the drug concentrations that reduce the mean absorbance at 570 nm to 50% of those in the untreated control wells, were calculated by the four-parameter logistic (4-PL) model. The evaluation was based on means from at least four independent experiments.

recombinant human PDK4 = target: T2, recombinant human PDK4 (Homo sapiens, UniProt Q16654); experiment: PDK4 ADPGlo Kinase Assay; assay type: biochemical; conditions: 1.5 µM compound, 30 min, room temperature
T2 construct: purchased Abcam
T2 sequence (Q16654 whole entry): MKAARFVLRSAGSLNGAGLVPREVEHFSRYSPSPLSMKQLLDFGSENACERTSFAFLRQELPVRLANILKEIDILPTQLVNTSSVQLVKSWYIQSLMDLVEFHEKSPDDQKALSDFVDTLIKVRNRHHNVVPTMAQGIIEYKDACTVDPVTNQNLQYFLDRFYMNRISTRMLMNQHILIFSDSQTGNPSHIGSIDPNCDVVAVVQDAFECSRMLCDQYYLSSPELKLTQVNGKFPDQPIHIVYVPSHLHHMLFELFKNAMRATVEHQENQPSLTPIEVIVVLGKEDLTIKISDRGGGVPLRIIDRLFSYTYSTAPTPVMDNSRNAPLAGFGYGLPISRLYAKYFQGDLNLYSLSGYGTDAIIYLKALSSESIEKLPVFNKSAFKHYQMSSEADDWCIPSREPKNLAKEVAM
Experimental: The ability of the tested compounds to hamper the activity of PDK1-4 isoforms was firstly evaluated by means of a chemioluminescent assay, the ADPGlo™ Kinase Assay kit (Promega Corporation, Madison, WI, USA). The results obtained by incubating PDK1-4 isoforms for 30 min at room temperature with 1.5 µM of tested compounds are depicted in Figure 3 panel A as a heat-map summary of the inhibition percentage on PDK1-4 enzymatic activity. All the newly synthesized compounds were able to inhibit the pyruvate dehydrogenase kinases, although to a different extent and showing a preferential activity towards the PDK1 and PDK4 isoforms. […] Conversely, all tested 1,2,4-triazin-3-amines were barely effective in blocking PDK2 activity at 1.5 µM concentration. In addition, IC50 values on the PDK1 isoform were also calculated for all synthesized derivatives and the results are shown in Table 2.
as §1

BxPC-3 spheroids = experiment: 3D spheroid cytotoxicity, acid phosphatase (APH) assay, BxPC-3; assay type: cell-based; conditions: Homo sapiens, 72 h, acid phosphatase (APH) test, read-out: IC50 (µM) ± S.D. BxPC-3 (3D spheroids)
recombinant human HSP90 = recombinant human HSP90 (Homo sapiens, UniProt P07900); experiment: HSP90 inhibition assay (Transcreener ADP kit); assay type: biochemical; conditions: for inhibition of HSP90 enzyme activity: 1.5 µM compound; for IC50: isolated HSP90, four-parameter logistic model, mean of 3 independent experiments, read-out: IC50 (µM) ± S.D. HSP90
Experimental: Since the ATP binding pockets in PDKs and HSP90 are similar and taking into consideration that these 1,2,4-triazine derivatives conserved a chemical scaffold resembling that of the well-known Hsp90 inhibitor Ganetespib, the most performant PDK inhibitors 4d, 4f, 4h, 5d, 5f, 5h and 5j were also screened for their ability to target HSP90.
The in vitro inhibitory activity of tested compounds on recombinant human HSP90 was assessed by The Transcreener™ ADP kit (Bellbrook Labs, Madison, WI, USA) according to the manufacturer’s protocol as previously described.

[2] = system: PSN-1 cells (KRAS-mutant PDAC); experiment: 2D cytotoxicity, MTT assay, PSN-1; assay type: cell-based; conditions: Homo sapiens, PSN1; 72 h exposure, MTT test, 2D culture; read-out: IC50 (µM) ± S.D. PSN-1 (2D)
Experimental: as §2, §3, §4, §5

PSN-1 spheroids = experiment: 3D spheroid cytotoxicity, acid phosphatase (APH) assay, PSN-1; assay type: cell-based; conditions: Homo sapiens, PSN1, 72 h, acid phosphatase (APH) test, read-out: IC50 (µM) ± S.D. PSN-1 (3D spheroids)
Experimental: Prompted by these encouraging results, we also screened the newly developed 1,2,4-triazine compounds against 3D spheroids of PDAC KRAS wild-type and mutant cells, to further estimate their anticancer potential in a more predictive environment. […] The PDAC cancer spheroids were treated with tested compounds for 72 h, and cell viability was assessed by means of the acid phosphatase (APH) assay (Table 3). The efficacy of gemcitabine as well as of DCA and DAP was assessed under the same experimental conditions.
Spheroid cultures were obtained by seeding 2.5 × 10^3 PSN-1 cancer cells/well in a round-bottom non-treated tissue culture 96-well plate (Greiner Bio-one, Kremsmünster, Austria) in phenol red-free RPMI-1640 medium (Sigma Chemical Co, St. Louis, MO, USA) containing 10% fetal calf serum and supplemented with 20% methylcellulose stock solution.
An APH-modified assay was used for determining cell viability in 3D spheroids, as previously described. Briefly, the pre-seeded spheroids were treated with fresh medium containing the compound to be studied at the appropriate concentration (range 2.5–200 μM). Triplicate cultures were established for each treatment. After 72 h, each well was treated with 100 μL of the assay buffer (0.1 M sodium acetate, 0.1% Triton-X-100, supplemented with ImmunoPure p-nitrophenyl phosphate; Sigma Chemical Co.) and, following 3 h of incubation, 10 μL of 1 M NaOH solution were added. The inhibition of the cell growth induced by the tested compounds was detected by measuring the absorbance of each well at 405 nm, using a Bio-Rad 680 microplate reader. The mean absorbance for each drug dose was expressed as a percentage of the control untreated well absorbance (T/C) and plotted vs. drug concentration. IC50 values, the drug concentrations that reduce the mean absorbance at 405 nm 50% of those in the untreated control wells, were calculated by the four-parameter logistic (4-PL) model. The evaluation was based on means from at least four independent experiments.

Row | Structure (SMILES) | inhibition of PDK1 enzymatic activity (recombinant human PDK1) | IC50 (recombinant human PDK1) [µM] | inhibition of PDK4 enzymatic activity (recombinant human PDK4) | inhibition of HSP90 enzyme activity (recombinant human HSP90) | IC50 (recombinant human HSP90) [µM] | melting point [°C] | decrease of HSP90 catalytic activity (recombinant human HSP90; 1.5 µM compound (equi-doses)) | IC50 [1] [µM] | IC50 (BxPC-3 spheroids) [µM] | IC50 [2] [µM] | IC50 (PSN-1 spheroids) [µM]
1 | Cn1cc(-c2nc(N)nnc2-c2cn(C)c3ncc(Br)cc23)c2cc(Cl)ccc21 [5f, 6-(5-Bromo-1-methyl-1H-pyrrolo[2,3-b]pyridin-3-yl)-5-(5-chloro-1-methyl-1H-indol-3-yl)-1,2,4-triazin-3-amine] | totally hampered | 0.08 ± 0.02 | completely suppress | completely abolish | 0.11 ± 0.04 | 334.6 | – | 22.4 ± 3.2 | 229 ± 17.2 | 21.3 ± 4.4 | 213 ± 14.4
2 | Cn1cc(-c2nnc(N)nc2-c2cn(C)c3ncc(Br)cc23)c2cc(Cl)ccc21 [4f, 5-(5-Bromo-1-methyl-1H-pyrrolo[2,3-b]pyridin-3-yl)-6-(5-chloro-1-methyl-1H-indol-3-yl)-1,2,4-triazin-3-amine] | totally hampered | 0.12 ± 0.04 | – | completely abolish | 0.1 ± 0.03 | 262.1 | – | 18.4 ± 1.4 | 169 ± 12.4 | 11.3 ± 1.8 | 162 ± 6.8
3 | Cn1cc(-c2nnc(N)nc2-c2cn(C)c3ncc(Br)cc23)c2cc(F)ccc21 [4h, 5-(5-Bromo-1-methyl-1H-pyrrolo[2,3-b]pyridin-3-yl)-6-(5-fluoro-1-methyl-1H-indol-3-yl)-1,2,4-triazin-3-amine] | totally hampered | 0.06 ± 0.02 | – | completely abolish | – | 155.6 | – | 22.3 ± 2.4 | 188 ± 14.4 | 17.5 ± 2.8 | 77.8 ± 3.8

These reach a lower IC50 (recombinant human PDK1). Values come first.

Row | inhibition of PDK1 enzymatic activity (recombinant human PDK1) | IC50 (recombinant human PDK1) [µM] | inhibition of PDK4 enzymatic activity (recombinant human PDK4) | inhibition of HSP90 enzyme activity (recombinant human HSP90) | IC50 (recombinant human HSP90) [µM] | melting point [°C] | decrease of HSP90 catalytic activity (recombinant human HSP90; 1.5 µM compound (equi-doses)) | Structure (SMILES) | IC50 [1] [µM] | IC50 (BxPC-3 spheroids) [µM] | IC50 [2] [µM] | IC50 (PSN-1 spheroids) [µM]
4 | totally hampered | 0.05 ± 0.03 | completely suppress | completely abolish | 0.09 ± 0.03 | 311.1 | – | Cn1cc(-c2nc(N)nnc2-c2cn(C)c3ncc(Br)cc23)c2cc(F)ccc21 [5h, 6-(5-Bromo-1-methyl-1H-pyrrolo[2,3-b]pyridin-3-yl)-5-(5-fluoro-1-methyl-1H-indol-3-yl)-1,2,4-triazin-3-amine] | 0.05 ± 0.03 | 208 ± 12.7 | 27.4 ± 5.1 | 132 ± 5.9
5 | totally hampered | 0.04 ± 0.02 | completely suppress | completely abolish | 0.06 ± 0.02 | – | – | Cn1cc(-c2nnc(N)nc2-c2cn(C)c3ncc(Br)cc23)c2cc(Br)ccc21 [4d, 6-(5-Bromo-1-methyl-1H-indol-3-yl)-5-(5-bromo-1-methyl-1H-pyrrolo[2,3-b]pyridin-3-yl)-1,2,4-triazin-3-amine] | 30.2 ± 6.2 | 176 ± 15.7 | 23.4 ± 3.7 | 103 ± 9.1
6 | totally hampered | 0.04 ± 0.02 | completely suppress | – | 0.18 ± 0.04 | 269.8 | 60–80% | COc1ccc2c(c1)c(-c1nc(N)nnc1-c1cn(C)c3ncc(Br)cc13)cn2C [5j, 6-(5-Bromo-1-methyl-1H-pyrrolo[2,3-b]pyridin-3-yl)-5-(5-methoxy-1-methyl-1H-indol-3-yl)-1,2,4-triazin-3-amine] | 0.04 ± 0.02 | 79.5 ± 5.4 | 0.1 ± 0.03 | 89.7 ± 5.7
7 | totally hampered | 0.05 ± 0.02 | completely suppress | completely abolish | 0.07 ± 0.01 | 333.7 | – | Cn1cc(-c2nc(N)nnc2-c2cn(C)c3ncc(Br)cc23)c2cc(Br)ccc21 [5d, 5-(5-Bromo-1-methyl-1H-indol-3-yl)-6-(5-bromo-1-methyl-1H-pyrrolo[2,3-b]pyridin-3-yl)-1,2,4-triazin-3-amine] | 26.7 ± 6.1 | 198 ± 14.2 | 21.3 ± 3.5 | 216 ± 13.6
